Experimental data: patent US12662491B2 (Redona Therapeutics, Inc., priority 2020, dated 2026)
pIC50: −log10 of the molar value.

Molecular target: T1, Zcchc11 enzyme (Homo sapiens, UniProt Q5TAX3)
T1 construct: made in house; host or cells: HEK293 cells (Zcchc11); E. coli Rosetta II (LIN28A)
T1 sequence (Q5TAX3 212-1420): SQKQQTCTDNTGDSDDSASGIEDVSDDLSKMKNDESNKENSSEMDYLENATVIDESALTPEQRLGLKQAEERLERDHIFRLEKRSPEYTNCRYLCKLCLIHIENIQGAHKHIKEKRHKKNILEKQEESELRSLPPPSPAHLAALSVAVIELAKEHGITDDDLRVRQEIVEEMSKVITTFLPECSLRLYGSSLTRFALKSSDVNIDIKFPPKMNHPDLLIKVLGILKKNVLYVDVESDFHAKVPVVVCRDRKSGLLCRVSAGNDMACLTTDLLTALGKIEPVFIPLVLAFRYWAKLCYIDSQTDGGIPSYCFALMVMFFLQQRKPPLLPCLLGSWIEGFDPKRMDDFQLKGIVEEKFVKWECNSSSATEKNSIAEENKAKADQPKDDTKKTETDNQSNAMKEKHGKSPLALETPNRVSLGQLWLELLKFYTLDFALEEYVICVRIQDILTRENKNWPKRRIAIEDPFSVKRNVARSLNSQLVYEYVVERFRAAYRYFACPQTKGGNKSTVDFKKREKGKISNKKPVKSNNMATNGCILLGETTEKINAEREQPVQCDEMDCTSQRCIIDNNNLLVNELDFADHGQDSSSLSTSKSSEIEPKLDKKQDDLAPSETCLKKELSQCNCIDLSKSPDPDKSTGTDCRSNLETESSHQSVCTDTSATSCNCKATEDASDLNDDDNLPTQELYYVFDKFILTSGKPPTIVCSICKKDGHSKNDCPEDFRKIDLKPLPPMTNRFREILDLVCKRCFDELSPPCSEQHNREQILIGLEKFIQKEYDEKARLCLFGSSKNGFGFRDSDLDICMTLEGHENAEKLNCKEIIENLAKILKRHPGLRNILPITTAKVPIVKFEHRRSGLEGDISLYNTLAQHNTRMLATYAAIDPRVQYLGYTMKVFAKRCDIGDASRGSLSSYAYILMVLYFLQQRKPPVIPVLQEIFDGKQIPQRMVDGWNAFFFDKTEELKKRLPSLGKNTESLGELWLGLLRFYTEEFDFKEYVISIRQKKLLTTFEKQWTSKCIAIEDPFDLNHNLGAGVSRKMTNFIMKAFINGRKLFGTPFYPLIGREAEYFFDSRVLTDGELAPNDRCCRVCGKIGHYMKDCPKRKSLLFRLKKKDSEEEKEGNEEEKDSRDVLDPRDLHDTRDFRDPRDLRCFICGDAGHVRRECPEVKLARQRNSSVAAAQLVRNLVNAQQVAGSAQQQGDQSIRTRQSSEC
Experiment: TUTase assay (Zcchc11 assay, Lin28a-dependent polyuridylation of pre-let-7)
Assay type: biochemical
Conditions: Lin28a-dependent Zcchc11 (Z11) TUTase activity; read-out: Potency Lin28a-dep Z11 IC50
Method in brief: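 Polyuridylation measured as fluorescein loss when a rhodamine-labelled A20 probe anneals to U-tails added to fluorescein pre-let-7 (2 nM). Reaction: truncated Zcchc11 0.2 nM, E. coli-made LIN28A 10 nM, UTP 5 uM, HEPES pH 7.3, room temperature. Initial rates fitted to four-parameter IC50.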

pIC50	Compound
≥ 6.00	COC1C[C@H](COc2ncccc2Cl)N(c2cc3c(cc2Cl)c(=O)c(C(=O)O)cn3-c2ccc(N3CC(N(C)C)C3)nc2)C1 (stereo partly drawn) [Compound 327, 6-Chloro-7-[(2R)-2-[[(3-chloropyridin-2-yl)oxy]methyl]-4-methoxy-pyrrolidin-1-yl]-1-[6-[3-(dimethyl-amino)azetidin-1-yl]pyridin-3-yl]-4-oxoquinoline-3-carboxylic acid]
≥ 6.00	CC1C[C@H](COc2ncccc2Cl)N(c2cc3c(cc2F)c(=O)c(C(=O)O)cn3-c2ccc(N3CC(N(C)C)C3)nc2)C1 (stereo partly drawn) [Compound 330, 7-[(2R)-2-[[(3-Chloropyridin-2-yl)oxy]methyl]-4-methyl-pyrrolidin-1-yl]-1-[6-[3-(dimethyl-amino)azetidin-1-yl]pyridin-3-yl]-6-fluoro-4-oxoquinoline-3-carboxylic acic]
≥ 6.00	CN(C)C1CN(c2ccc(-n3cc(C(=O)O)c(=O)c4cc(Cl)c(N5CCC[C@@H]5COc5nc(O)ccc5Cl)cc43)cn2)C1 [Compound 331, 6-Chloro-7-[(2R)-2-[[(3-chloro-6-hydroxy-pyridin-2-yl)oxy]methyl]pyrrolidin-1-yl]-1-[6-[3-(dimethyl-amino)azetidin-1-yl]pyridin-3-yl]-4-oxoquinoline-3-carboxylic acid]
≥ 6.00	CC1CCN(c2cc3c(cc2Cl)c(=O)c(C(=O)O)cn3-c2ccc(N3CC(N(C)C)C3)nc2)C1COc1nc(N(C)C)ccc1Cl (stereo not drawn) [Compound 332, 6-Chloro-7-[2-({[3-chloro-6-(dimethyl-amino)pyridin-2-yl]oxy}methyl)-3-methyl-pyrrolidin-1-yl]-1-{6-[3-(dimethyl-amino)azetidin-1-yl]pyridin-3-yl}-4-oxoquinoline-3-carboxylic acid]
≥ 6.00	CC1CCN(c2cc3c(cc2Cl)c(=O)c(C(=O)O)cn3-c2ccnc(N)c2)[C@H]1COc1nc(N(C)C)ccc1Cl (stereo partly drawn) [Compound 333]
≥ 6.00	CN(C)C1CN(c2ccc(-n3cc(C(=O)O)c(=O)c4cc(F)c(N5C6CC6C[C@@H]5COc5nc6c(ccn6C)cc5Cl)cc43)cn2)C1 (stereo partly drawn) [Compound 334, 7-[(3R)-3-[({5-chloro-1-methylpyrrolo [2,3-b]pyridin-6-yl}oxy)methyl]-2-azabicyclo [3.1.0]hexan-2-yl]-1-{6-[3-(dimethyl-amino)azetidin-1-yl]pyridin-3-yl}-6-fluoro-4-oxoquinoline-3-carboxylic acid]
≥ 6.00	CN(C)c1ccc(Cl)c(OC[C@H]2C[C@@H]3C[C@@H]3N2c2cc3c(cc2F)c(=O)c(C(=O)O)cn3-c2ccc(N3CC(N(C)C)C3)nc2)n1 [Compound 335, 7-[(1S,3R,5S)-3-({[3-Chloro-6-(dimethyl-amino)pyridin-2-yl]oxy}methyl)-2-azabicyclo [3.1.0]hexan-2-yl]-1-{6-[3-(dimethyl-amino)azetidin-1-yl]pyridin-3-yl}-6-fluoro-4-oxoquinoline-3-carboxylic acid]
≥ 6.00	CN(C)C1CN(c2ccc(-n3cc(C(=O)O)c(=O)c4cc(Cl)c(N5C6CC6C[C@@H]5COc5nc(N)ccc5Cl)cc43)cn2)C1 (stereo partly drawn) [Compound 336, 7-[(3R)-3-{[(6-Amino-3-chloropyridin-2-yl)oxy]methyl}-2-azabicyclo [3.1.0]hexan-2-yl]-6-chloro-1-{6-[3-(dimethyl-amino)azetidin-1-yl]pyridin-3-yl}-4-oxoquinoline-3-carboxylic acid]
≥ 6.00	CN(C)C1CN(c2ccc(-n3cc(C(=O)O)c(=O)c4cc(F)c(N5[C@@H](COc6nc7c(ccn7C)cc6Cl)C[C@H]6C[C@H]65)cc43)cn2)C1 [Compound 337, 7-[(1R,3R,5R)-3-[{{5-Chloro-1-methyl-pyrrolo[2,3-b]pyridin-6-yl}oxy)methyl]-2-azabicyclo [3.1.0]hexan-2-yl]-1-{6-[3-(dimethyl-amino)azetidin-1-yl]pyridin-3-yl}-6-fluoro-4-oxoquinoline-3-carboxylic acid]
≥ 6.00	CN(C)c1ccc(Cl)c(OC[C@H]2C[C@H]3C[C@H]3N2c2cc3c(cc2F)c(=O)c(C(=O)O)cn3-c2ccc(N3CC(N(C)C)C3)nc2)n1 [Compound 338, 7-[(1R,3R,5R)-3-({[3-chloro-6-(dimethyl-amino)pyridin-2-yl]oxy}methyl)-2-azabicyclo [3.1.0]hexan-2-yl]-1-{6-[3-(dimethyl-amino)azetidin-1-yl]pyridin-3-yl}-6-fluoro-4-oxoquinoline-3-carboxylic acid]
≥ 6.00	CN(C)C1CN(c2ccc(-n3cc(C(=O)O)c(=O)c4cc(Cl)c(N5[C@@H](COc6nc(N)ccc6Cl)C[C@H]6C[C@H]65)cc43)cn2)C1 [Compound 339, 7-[(3R)-3-{[(6 Amino-3-chloropyridin-2-yl)oxy]methyl}-2-azabicyclo [3.1.0]hexan-2-yl]-6-chloro-1-{6-[3-(dimethyl-amino)azetidin-1-yl]pyridin-3-yl}-4-oxoquinoline-3-carboxylic acid]
≥ 6.00	COc1ccc(Cl)c(OC[C@H]2C[C@H]3C[C@H]3N2c2cc3c(cc2F)c(=O)c(C(=O)O)cn3-c2ccc(N(C)C)nc2)n1 [Compound 340, 7-[(1R,3R,5R)-3-{[(3-Chloro-6-methoxy-pyridin-2-yl)oxy]methyl}-2-azabicyclo [3.1.0]hexan-2-yl]-1-[6-(dimethyl-amino)pyridin-3-yl]-6-fluoro-4-oxoquinoline-3-carboxylic acid]
≥ 6.00	COc1ccc(Cl)c(OC[C@H]2C[C@H]3C[C@H]3N2c2cc3c(cc2Cl)c(=O)c(C(=O)O)cn3-c2ccc(N(C)C)nc2)n1 [Compound 341, 6-Chloro-7-[(1R,3R,5R)-3-{[(3-chloro-6-methoxy-pyridin-2 yl)oxy]methyl}-2-azabicyclo [3.1.0]hexan-2-yl]-1-[6-(dimethyl-amino)pyridin-3-yl]-4-oxoquinoline-3-carboxylic acid]
≥ 6.00	COc1ccc(F)c(OC[C@H]2C[C@H]3C[C@H]3N2c2cc3c(cc2Cl)c(=O)c(C(=O)O)cn3-c2ccnc(N)c2)n1 [Compound 342, 1-(2-Aminopyridin-4-yl)-6-chloro-7-[(1R,3R,5R)-3-{[(3-fluoro-6-methoxy-pyridin-2-yl)oxy]methyl}-2-azabicyclo [3.1.0]hexan-2-yl]-4-oxoquinoline-3-carboxylic acid]
≥ 6.00	Cc1ccc(F)c(OC[C@H]2C[C@H]3C[C@H]3N2c2cc3c(cc2Cl)c(=O)c(C(=O)O)cn3-c2ccc(N(C)C)nc2)n1 [Compound 343, 6-Chloro-1-[6-(dimethyl-amino)pyridin-3-yl]-7-[(1R,3R,5R)-3-{[(3-fluoro-6-methylpyridin-2-yl)oxy]methyl}-2-azabicyclo [3.1.0]hexan-2-yl]-4-oxoquinoline-3-carboxylic acid]
≥ 6.00	Cc1ccc(F)c(OC[C@H]2C[C@H]3C[C@H]3N2c2cc3c(cc2F)c(=O)c(C(=O)O)cn3-c2ccc(N(C)C)nc2)n1 [Compound 344, 1-[6-(Dimethyl-amino)pyridin-3-yl]-6-fluoro-7-[(1R,3R,5R)-3-{[(3-fluoro-6-methylpyridin-2-yl)oxy]methyl}-2-azabicyclo [3.1.0]hexan-2-yl]-4-oxoquinoline-3-carboxylic acid]
≥ 6.00	COc1ccc(Cl)c(OC[C@H]2C[C@@H](c3cccnc3)CN2c2cc3c(cc2Cl)c(=O)c(C(=O)O)cn3-c2ccc(N3CC(N(C)C)C3)nc2)n1 [Compound 345, 6-chloro-7-((2R,4S)-2-(((3-chloro-6-methoxy-pyridin-2-yl)oxy)methyl)-4-(pyridin-3-yl)pyrrolidin-1-yl)-1-(6-(3-(dimethyl-amino)azetidin-1-yl)pyridin-3-yl)-4-oxo-1,4-dihydro-quinoline-3-carboxylic acid]
≥ 6.00	CN(C)C1CN(c2ccc(-n3cc(C(=O)O)c(=O)c4cc(Cl)c(N5CC(c6ncccn6)C[C@@H]5COc5ncccc5Cl)cc43)cn2)C1 (stereo partly drawn) [Compound 346, 6-chloro-7-((2R)-2-(((3-chloropyridin-2-yl)oxy)methyl)-4-(pyrimidin-2-yl)pyrrolidin-1-yl)-1-(6-(3-(dimethyl-amino)azetidin-1-yl)pyridin-3-yl)-4-oxo-1,4-dihydro-quinoline-3-carboxylic acid]
